Test results: patent publication US20130158084A1, “Pharmaceutical Composition Comprising Losartin For Treating or Preventing Statin BasedGrug-Induced Muscle Toxicity” (HANALL BIOPHARMA CO., LTD., priority 2011, published 2013)
Read-outs that look alike come from different tables or passages of the source.

How the values were obtained:
[1] = test system: extensor digitorum longus muscle; settings: after three weeks
Protocol: In addition, a 0.5% MC solution or physiological saline was orally administered to a control group.
Then, the concentration of a muscle toxicity-associated enzyme, such as creatine kinase (CK) and lactate dehydrogenase (LDH) in blood was measured and a histological analysis was performed.
The rats were anesthetized with ether after three weeks of starting the administration for each experimental group; an extensor digitorum longus muscle was removed; fixed in paraffin; and then made into 5 μm coronal sections. The paraffin was removed with xylene, hydrophilicized with alcohol, and then stained with hematoxylin and eosin to observe the tissue through an optical microscope (Olympus Optical, Co., Japan).

[2] = after oral administration; cited from earlier work
[3] = Frequency of muscular side effects according to dosage (Zocor Tablet Label); format: in vivo; settings: dosage of 80 mg compared to 20 mg
Text: In addition, it is reported that the side effects are increased when the concentration of the statin-based drug in blood is increased in the most cases. […] 16, 2011].

For `CC(C)c1c(C(=O)Nc2ccccc2)c(-c2ccccc2)c(-c2ccc(F)cc2)n1CC[C@@H](O)C[C@@H](O)CC(=O)O` [Atorvastatin, atorvastatin], which “Degree of Muscle Tissue Damage, Scores (0: Normal, +1: internal nuclei, +2: Myositis, +3: internal nuclei + myositis)” value ([1]; 40 mg/kg atorvastatin alone) is on record?
Its value is 1.0 ± 0.0.

And the “Degree of Muscle Tissue Damage, Scores (0: Normal, +1: internal nuclei, +2: Myositis, +3: internal nuclei + myositis)” value ([1]; 80 mg/kg atorvastatin alone)?
The value was 1.8 ± 0.2.

With `CCCCc1nc(Cl)c(CO)n1Cc1ccc(-c2ccccc2-c2nn[nH]n2)cc1` [Losartan, 2-butyl-4 chloro-1-[2-(1H-tetrazol-5-yl)biphenyl-4-ylphenyl]-1H-imidazol-5-methanol] as the compound, how does the “Time to maximum concentration in the blood (losartan molecules)” value [2] read?
Its value is “within one hour”.

Which “Increase in frequency of muscular side effects, 80 mg compared to 20 mg” value [3] does the source give for `CCC(C)(C)C(=O)O[C@H]1C[C@@H](C)C=C2C=C[C@H](C)[C@H](CC[C@@H]3C[C@@H](O)CC(=O)O3)[C@H]21` [simvastatin] here?
The value was “at least 20 times”.
